Data as given in patent publication US11753407B2, “Compounds for treating spinal muscular atrophy” (PTC Therapeutics, Inc., priority 2012, dated 2023).

Experiments:
[1] = tested on: Smn protein in SMA patient fibroblast cells (GM03813); assay: Smn protein assay in cultured cells (SMN HTRF); type: cell-based, human; conditions: SMA patient fibroblast cells, 48 hours; for maximum fold (Fold) increase of Smn protein: 7-point concentration data, fold relative to vehicle control; for EC1.5x for Smn protein expression: 7-point concentration curve, SMN HTRF, concentration producing 1.5 times Smn protein vs DMSO vehicle control
Summary of the method: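 SMA patient fibroblasts (5,000 cells/well, DMEM-10% FBS) were treated for 48 h at 37 °C with a 7-point, 3.16-fold dilution series in triplicate. RIPA lysates were probed by HTRF (anti-SMN d2/kryptate, overnight, room temperature), reading 665/620 nm. EC1.5× is the concentration giving 1.5-fold Smn over DMSO vehicle.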

[2] = tested on: SMN2 minigene mRNA (SMN2-A minigene) in HEK293H cells; assay: SMN2 minigene mRNA splicing RT-qPCR assay in cultured cells; type: cell-based, human; conditions: Homo sapiens, HEK293-H; concentration increasing full length SMN2 mRNA 1.5-fold relative to vehicle-treated cells; HEK293H cells with SMN2-A minigene, 24 hours, 7-point concentration data; read-out: EC1.5x for production of full length SMN2 mRNA
Summary of the method: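 HEK293H cells stably carrying the SMN2-A minigene were treated for 24 h at 37 °C with a 7-point, 3.16-fold dilution series of compound. Multiplex RT-qPCR measured exon 7-containing minigene FL mRNA against GAPDH, expressed relative to vehicle by modified ΔΔCt; the EC1.5× is the concentration giving a 1.5-fold increase.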

Row | Compound | melting point [°C] | maximum fold (Fold) increase of Smn protein [1] | EC (1.5-fold increase) [2] [µM] | EC1.5x for Smn protein expression [1]
1 | O=c1cc(-c2ccc3nc(C(F)(F)F)cn3c2)nc2ccc(N3CCNCC3)cn12 [Compound 123, 7-(piperazin-1-yl)-2-[2-(trifluoromethyl)imidazo[1,2-a]pyridin-6-yl]-4H-pyrido[1,2-a]pyrimidin-4-one] | 250 to 255 | * (A maximum fold increase of ≤1.2 is indicated by one star (*)) | 1 to 3 | –
2 | CCc1cn2cc(-c3cc(=O)n4cc(N5CCNCC5)ccc4n3)ccc2n1 [Compound 124, 2-(2-ethylimidazo[1,2-a]pyridin-6-yl)-7-(piperazin-1-yl)-4H-pyrido[1,2-a]pyrimidin-4-one] | 228 to 232 | ** (a fold increase between >1.2 and ≤1.35 is indicated by two stars (**)) | 0.3 to 1 | –
3 | Cc1nc2ccc(-c3cc(=O)n4cc(N5CCNCC5)ccc4n3)cn2c1C [Compound 125, 2-(2,3-dimethylimidazo[1,2-a]pyridin-6-yl)-7-(piperazin-1-yl)-4H-pyrido[1,2-a]pyrimidin-4-one] | 236 to 240 | *** (a fold increase between >1.35 and ≤1.5 is indicated by three stars (***)) | 0.3 to 1 | –
4 | COc1ccc(-c2cc(=O)n3cc(N4C[C@H]5CNC[C@H]5C4)ccc3n2)cc1OC [Compound 126, 2-(3,4-dimethoxyphenyl)-7-[(3aR,6aS)-hexahydropyrrolo[3,4-c]pyrrol-2(1H)-yl]-4H-pyrido[1,2-a]pyrimidin-4-one] | 286 to 290 | ** (a fold increase between >1.2 and ≤1.35 is indicated by two stars (**)) | 0.1 to 0.3 | –
5 | COc1ccc(-c2cc(=O)n3cc(N4CCC(N)CC4)ccc3n2)cc1OC [Compound 127, 7-(4-aminopiperidin-1-yl)-2-(3,4-dimethoxyphenyl)-4H-pyrido[1,2-a]pyrimidin-4-one] | 182 to 185 | *** (a fold increase between >1.35 and ≤1.5 is indicated by three stars (***)) | 0.3 to 1 | * (An EC1.5× for Smn protein expression between >3 μM and ≤10 μM is indicated by one star (*))
6 | Cc1nc2ccc(-c3cc(=O)n4cc(N5CCNCC5)ccc4n3)cc2o1 [Compound 133, 2-(2-methyl-1,3-benzoxazol-6-yl)-7-(piperazin-1-yl)-4H-pyrido[1,2-a]pyrimidin-4-one] | 219 to 222 | **** (a fold increase between >1.5 and ≤1.65 is indicated by four stars (****)) | < 0.1 | **** (an EC1.5x≤0.3 μM is indicated by four stars (****))
7 | Cc1nc2cc(-c3cc(=O)n4cc(N5CCNCC5)ccc4n3)ccc2s1 [Compound 136, 2-(2-methyl-1,3-benzothiazol-5-yl)-7-(piperazin-1-yl)-4H-pyrido[1,2-a]pyrimidin-4-one] | 228 to 230 | ***** (a fold increase >1.65 is indicated by five stars (*****)) | < 0.1 | **** (an EC1.5x≤0.3 μM is indicated by four stars (****))
8 | Cn1cc2cc(-c3cc(=O)n4cc(N5CCNCC5)ccc4n3)ccc2n1 [Compound 137, 2-(2-methyl-2H-indazol-5-yl)-7-(piperazin-1-yl)-4H-pyrido[1,2-a]pyrimidin-4-one] | 175 to 180 | ***** (a fold increase >1.65 is indicated by five stars (*****)) | 0.1 to 0.3 | *** (an EC1.5× between >0.3 μM and ≤1 μM is indicated by three stars (***))
9 | COc1cc(F)cc(-c2cc(=O)n3cc(N4CCNCC4)ccc3n2)c1 [Compound 139, 2-(3-fluoro-5-methoxyphenyl)-7-(piperazin-1-yl)-4H-pyrido[1,2-a]pyrimidin-4-one] | 168 to 170 | *** (a fold increase between >1.35 and ≤1.5 is indicated by three stars (***)) | 1 to 3 | –
10 | Cc1cn2cc(-c3cc(=O)n4cc(N5CCNCC5)ccc4n3)cc(C)c2n1 [Compound 141, 2-(2,8-dimethylimidazo[1,2-a]pyridin-6-yl)-7-(piperazin-1-yl)-4H-pyrido[1,2-a]pyrimidin-4-one] | 270 to 274 | ***** (a fold increase >1.65 is indicated by five stars (*****)) | < 0.1 | **** (an EC1.5x≤0.3 μM is indicated by four stars (****))
11 | COc1ccc(-c2cc(=O)n3cc(N4CCN[C@@H](C)C4)cc(C)c3n2)cc1OC [Compound 142, 2-(3,4-dimethoxyphenyl)-9-methyl-7-[(3S)-3-methylpiperazin-1-yl]-4H-pyrido[1,2-a]pyrimidin-4-one] | 176 to 182 | *** (a fold increase between >1.35 and ≤1.5 is indicated by three stars (***)) | 0.3 to 1 | –
12 | COc1ccc(-c2cc(=O)n3cc(N4CCN(O)CC4)ccc3n2)cc1OC [Compound 146, 2-(3,4-dimethoxyphenyl)-7-(4-hydroxypiperazin-1-yl)-4H-pyrido[1,2-a]pyrimidin-4-one] | 202 to 204 | * (A maximum fold increase of ≤1.2 is indicated by one star (*)) | 1 to 3 | –
13 | COc1ccc(-c2cc(=O)n3cc(N4CC[C@H](N(C)C)C4)ccc3n2)cc1OC [Compound 147, 2-(3,4-dimethoxyphenyl)-7-[(3S)-3-(dimethylamino)pyrrolidin-1-yl]-4H-pyrido[1,2-a]pyrimidin-4-one] | 156 to 158 | * (A maximum fold increase of ≤1.2 is indicated by one star (*)) | 1 to 3 | –
14 | COc1ccc(-c2cc(=O)n3cc(N4CCC(N(C)C)CC4)ccc3n2)cc1OC [Compound 148, 2-(3,4-dimethoxyphenyl)-7-[4-(dimethylamino)piperidin-1-yl]-4H-pyrido[1,2-a]pyrimidin-4-one] | 158 to 161 | *** (a fold increase between >1.35 and ≤1.5 is indicated by three stars (***)) | 0.1 to 0.3 | ** (an EC1.5× between >1 μM and ≤3 μM is indicated by two stars (**))

Second part, led by results:

Row | melting point [°C] | Compound | maximum fold (Fold) increase of Smn protein [1] | EC (1.5-fold increase) [2] [µM] | EC1.5x for Smn protein expression [1]
15 | 230 to 233 | Cn1ccc2cc(-c3cc(=O)n4cc(N5CCNCC5)ccc4n3)cnc21 [Compound 129, 2-(1-methyl-1H-pyrrolo[2,3-b]pyridin-5-yl)-7-(piperazin-1-yl)-4H-pyrido[1,2-a]pyrimidin-4-one] | *** (a fold increase between >1.35 and ≤1.5 is indicated by three stars (***)) | 0.3 to 1 | * (An EC1.5× for Smn protein expression between >3 μM and ≤10 μM is indicated by one star (*))
16 | 265 to 268 | C[C@@H]1CN(c2ccc3nc(-c4cnc5c(ccn5C)c4)cc(=O)n3c2)C[C@H](C)N1 [Compound 130, 7-[(3R,5S)-3,5-dimethylpiperazin-1-yl]-2-(1-methyl-1H-pyrrolo[2,3-b]pyridin-5-yl)-4H-pyrido[1,2-a]pyrimidin-4-one] | *** (a fold increase between >1.35 and ≤1.5 is indicated by three stars (***)) | 1 to 3 | * (An EC1.5× for Smn protein expression between >3 μM and ≤10 μM is indicated by one star (*))
17 | 191 to 193 | Cc1nc2ccc(-c3cc(=O)n4cc(N5CCN[C@@H](C)C5)ccc4n3)cc2o1 [Compound 134, 2-(2-methyl-1,3-benzoxazol-6-yl)-7-[(3S)-3-methylpiperazin-1-yl]-4H-pyrido[1,2-a]pyrimidin-4-one] | ***** (a fold increase >1.65 is indicated by five stars (*****)) | < 0.1 | **** (an EC1.5x≤0.3 μM is indicated by four stars (****))
18 | 174 to 180 | Cc1nc2cc(-c3cc(=O)n4cc(N5CCN[C@@H](C)C5)ccc4n3)ccc2s1 [Compound 135, 2-(2-methyl-1,3-benzothiazol-5-yl)-7-[(3S)-3-methylpiperazin-1-yl]-4H-pyrido[1,2-a]pyrimidin-4-one] | **** (a fold increase between >1.5 and ≤1.65 is indicated by four stars (****)) | < 0.1 | **** (an EC1.5x≤0.3 μM is indicated by four stars (****))
19 | 166 to 170 | C[C@H]1CN(c2ccc3nc(-c4ccc5nn(C)cc5c4)cc(=O)n3c2)CCN1 [Compound 138, 2-(2-methyl-2H-indazol-5-yl)-7-[(3S)-3-methylpiperazin-1-yl]-4H-pyrido[1,2-a]pyrimidin-4-one] | ***** (a fold increase >1.65 is indicated by five stars (*****)) | 0.1 to 0.3 | *** (an EC1.5× between >0.3 μM and ≤1 μM is indicated by three stars (***))
20 | 154 to 156 | COc1cc(F)cc(-c2cc(=O)n3cc(N4CCN[C@@H](C)C4)ccc3n2)c1 [Compound 140, 2-(3-fluoro-5-methoxyphenyl)-7-[(3S)-3-methylpiperazin-1-yl]-4H-pyrido[1,2-a]pyrimidin-4-one] | *** (a fold increase between >1.35 and ≤1.5 is indicated by three stars (***)) | 1 to 3 | –
